Usually MBC stands for the lowest tested concentration that kills the bacteria rather than only halting them. What is called MIC is the lowest concentration found to suppress growth.

The values below come from patent US11806342B2, “Diiodohydroxyquinoline for the treatment of clostridium difficile infection” (Purdue Research Foundation, priority 2019, dated 2023).

SMILES strings stand for the structures. In brackets after ≈: the same amount, converted by molar mass.

Holding throughout (assay type): cell-based, Clostridium difficile
One assay deals with C. difficile NR-49290. The assay can be described thus: MIC and MBC, broth microdilution. As to conditions: Clostridioides difficile, NR49290, C. difficile NR-49290; for MBC: read-out: MBC. Here is the method:
(§1) MIC50 and MIC90 are the minimum concentration of each agent that inhibited growth of 50% and 90% of the tested isolates, respectively. The minimum bactericidal concentration (MBC) of these drugs was tested by plating 5 μL from wells with no growth onto BHIS agar plates. The MBC was categorized as the lowest concentration that reduced bacterial growth by 99.9% MIC50 and MIC90 are the minimum concentration of each agent that inhibited the growth of 50% and 90% of the tested isolates, respectively. The minimum bactericidal concentration (MBC) of these drugs was tested by plating 5 μL from wells with no growth onto BHIS agar plates. The MBC was categorized as the lowest concentration that reduced bacterial growth by 99.9% [29-31].
In general terms: In broth dilution the organism is exposed to a series of concentrations in liquid medium.

Assay [1] concerns C. difficile P11. Kind of assay: MIC and MBC, broth microdilution. To be noted: Clostridioides difficile, C. difficile P11; for MBC: read-out: MBC. The method, then:
as §1

Another assay deals with C. difficile P13. Kind of assay: MIC and MBC, broth microdilution. As to conditions: Clostridioides difficile, C. difficile P13; for MBC: read-out: MBC. The method, then: as §1
Another assay relates to C. difficile P2. Kind of assay: MIC and MBC, broth microdilution. To be noted: Clostridioides difficile, C. difficile P2; for MBC: read-out: MBC. Here is the method:
as §1

The subject of the next assay is C. difficile ATCC 1801. Kind of assay: Checkerboard assay, DIHQ with metronidazole or vancomycin. Here is the method: (§2) Interactions between diiodohydroxyquinoline and the anticlostridial drugs (metronidazole and vancomycin) against Clostridium difficile clinical isolates. […] The fractional inhibitory concentration index (ΣFIC) was calculated for each interaction. Interactions where the ΣFIC index was ≤0.5 were categorized as synergistic (SYN).

For a further assay, the system named is C. difficile ATCC 9689. Described as above. The method, then: as §2
Another assay relates to C. difficile I6. Described as above. Here is the method: as §2
Assay [2] relates to C. difficile P11. The assay is described as above. The method, then: as §2
In the next assay the test system is C. difficile P19. The description is as above. Here is the method: as §2
A further assay has as its system C. difficile P30. The assay is described as above. Here is the method: as §2
For another assay, the system named is C. difficile ATCC 43255. Kind of assay: Spore inhibition assay. To be noted: five days. The method, then:
(§3) The spore inhibition assay was performed as described in previous reports to investigate the effect of diiodohydroxyquinoline on C. difficile spore formation. Briefly, […], the bacterial suspension was split into microcentrifuge tubes and drugs were added (in triplicates) at concentrations equal to ½×MIC or 1×MIC. Tubes were then, incubated anaerobically for five days at 37° C. Thereafter, an aliquot from each tube was diluted and plated on BHIS agar plates supplemented with 0.1% taurocholic acid, to count the total bacterial counts (vegetative bacteria+spores). The remaining solution was centrifuged, and the pellet was suspended in PBS, stored overnight at 4° C., and subsequently shock-heated at 70° C. for 30 minutes to kill the vegetative cells. The resulting solution was serially diluted and plated to determine the heat-resistant spore counts. Spore inhibition assay was performed as described in previous reports to investigate the effect of DIHQ on C. difficile spore formation. Briefly, log-phase cultures of C. difficile strains (ATCC BAA-1870, ATCC 43255, and NR-49277) were diluted in BHIS to an initial density of ˜10^6 CFU/mL. Afterwards, the bacterial suspension was split in small tubes and the drugs were added (in triplicates) at concentrations equal to ½×MIC or 1×MIC. Tubes were then incubated anaerobically for 5 days at 37° C. After that, an aliquot from each tube was diluted and plated on BHIS agar plates supplemented with 0.1% taurocholic acid, to count the total bacterial count (vegetative bacteria+spores). The remaining solution was centrifuged, and the pellet was suspended in PBS and stored overnight at 4° C. then shock heated at 70° C. for 30 minutes to kill the vegetative cells. The resulting solution was serially diluted and plated to determine the heat-resistant spore counts.

Assay [3] has as its system C. difficile ATCC BAA-1870. The assay can be described thus: Spore inhibition assay. To be noted: five days. The method, then:
as §3

The test system of the next assay is C. difficile NR-49277. The assay can be described thus: Spore inhibition assay. As to conditions: five days. The method, then: as §3
The next assay concerns C. difficile ATCC 700057. The assay can be described thus: MIC and MBC, broth microdilution. As to conditions: Clostridioides difficile, ATCC700057, C. difficile ATCC 700057. The method, then: as §1
The subject of assay [4] is C. difficile ATCC BAA-1870. Kind of assay: MIC and MBC, broth microdilution. As to conditions: Clostridioides difficile, ATCCBAA1870, C. difficile ATCC BAA-1870. The method, then: as §1
The test system of the next assay is C. difficile I2. The assay can be described thus: MIC and MBC, broth microdilution. To be noted: Clostridioides difficile, C. difficile I2. Here is the method:
as §1

A further assay concerns C. difficile NR-49286. Kind of assay: MIC and MBC, broth microdilution. To be noted: Clostridioides difficile, NR49286, C. difficile NR-49286. Here is the method: as §1
The next assay relates to C. difficile P1. The assay can be described thus: MIC and MBC, broth microdilution. As to conditions: Clostridioides difficile, C. difficile P1. The method, then:
as §1

The subject of a further assay is C. difficile P7. Kind of assay: MIC and MBC, broth microdilution. To be noted: Clostridioides difficile, C. difficile P7. The method, then:
as §1

`Cc1ncc([N+](=O)[O-])n1CCO` [Metronidazole, metronidazole]: the minimal bactericidal concentration (MBC) in the assay on C. difficile NR-49290, in the assay with C. difficile P11 [1], in the assay with C. difficile P13 and in the assay on C. difficile P2 was 0.25 µg/mL (≈ 1.46 µM) in each case. Also, the “MIC of metronidazole combined with DIHQ” value in the assay with C. difficile ATCC 1801 (C. difficile ATCC 1801) came to 0.03 µg/mL; in the assay with C. difficile ATCC 9689 (C. difficile ATCC 9689), 0.03 µg/mL; with C. difficile I6 (C. difficile I6), 0.03 µg/mL; in the assay with C. difficile P11 [2] (C. difficile P11) it was 0.03 µg/mL; in the assay on C. difficile P19 (C. difficile P19), 0.06 µg/mL; with C. difficile P30 (C. difficile P30), 0.06 µg/mL. Also, the MIC was 0.25 µg/mL in the assay with C. difficile ATCC 1801 (Clostridioides difficile, ATCC1801, C. difficile ATCC 1801, Table 3, read-out: MIC alone); 0.25 µg/mL with C. difficile ATCC 9689 (Clostridioides difficile, ATCC9689, C. difficile ATCC 9689, Table 3, read-out: MIC alone); 0.25 µg/mL in the assay with C. difficile I6 (Clostridioides difficile, C. difficile I6, Table 3, read-out: MIC alone); 0.25 µg/mL in the assay with C. difficile P11 [2] (Clostridioides difficile, C. difficile P11, Table 3, read-out: MIC alone); 0.5 µg/mL in the assay with C. difficile P19 (Clostridioides difficile, C. difficile P19, Table 3, read-out: MIC alone); 0.5 µg/mL in the assay on C. difficile P30 (Clostridioides difficile, C. difficile P30, Table 3, read-out: MIC alone). The “reduction in spore count (in words)” value is on record as “almost no reduction” in the assay on C. difficile ATCC 43255 (C. difficile ATCC 43255, ½×MIC or 1×MIC); “almost no reduction” in assay [3] (C. difficile ATCC BAA-1870, ½×MIC or 1×MIC); “almost no reduction” with C. difficile NR-49277 (C. difficile NR-49277, ½×MIC or 1×MIC).
`CCc1c(Cl)c(O)c(Cl)c(O)c1C(=O)O[C@H]1[C@H](O)[C@H](OC)[C@H](OC/C2=C\C=C\C[C@H](O)/C(C)=C/[C@H](CC)[C@@H](O[C@@H]3OC(C)(C)[C@@H](OC(=O)C(C)C)[C@H](O)[C@@H]3O)/C(C)=C/C(C)=C/C[C@@H]([C@@H](C)O)OC2=O)O[C@@H]1C` [Fidaxomicin, fidaxomicin]: the MBC with C. difficile ATCC 700057 (read-out: MBC) was 0.007 µg/mL (≈ 0.00662 µM); in [4] (read-out: MBC) it was 0.03 µg/mL (≈ 0.0284 µM); in the assay with C. difficile I2 (read-out: MBC), 0.007 µg/mL (≈ 0.00662 µM); in the assay on C. difficile NR-49286 (read-out: MBC), 0.015 µg/mL (≈ 0.0142 µM); in the assay with C. difficile NR-49290 it was 0.015 µg/mL (≈ 0.0142 µM); in the assay with C. difficile P11 [1], 0.03 µg/mL (≈ 0.0284 µM). The MBC with C. difficile P13 was determined as 0.015 µg/mL (≈ 0.0142 µM); in the assay with C. difficile P1 (read-out: MBC), 0.007 µg/mL (≈ 0.00662 µM); in the assay on C. difficile P2, 0.03 µg/mL (≈ 0.0284 µM); in the assay with C. difficile P7 (read-out: MBC), 0.06 µg/mL (≈ 0.0567 µM). For the same molecule, the minimum inhibitory concentration (MIC) in the assay on C. difficile ATCC 700057 (read-out: MIC) worked out at 0.007 µg/mL (≈ 0.00662 µM); in assay [4] (read-out: MIC), 0.03 µg/mL (≈ 0.0284 µM); in the assay on C. difficile I2 (read-out: MIC) it was 0.007 µg/mL (≈ 0.00662 µM); with C. difficile NR-49286 (read-out: MIC), 0.007 µg/mL (≈ 0.00662 µM); in the assay on C. difficile NR-49290 (read-out: MIC) it was 0.015 µg/mL (≈ 0.0142 µM); in the assay with C. difficile P11 [1] (read-out: MIC) it was 0.03 µg/mL (≈ 0.0284 µM). For the same molecule, the MIC is 0.015 µg/mL (≈ 0.0142 µM) in the assay on C. difficile P13 (read-out: MIC), 0.003 µg/mL (≈ 0.00284 µM) in the assay on C. difficile P1 (read-out: MIC), 0.03 µg/mL (≈ 0.0284 µM) in the assay on C. difficile P2 (read-out: MIC) and 0.06 µg/mL (≈ 0.0567 µM) with C. difficile P7 (read-out: MIC). The “reduction in spore count” value in the assay on C. difficile ATCC 43255 (C. difficile ATCC 43255, 1×MIC) is recorded as around 1.8 log10; in the assay with C. difficile ATCC 43255 (C. difficile ATCC 43255, ½×MIC) it was around 0.75 log10; in assay [3] (C. difficile ATCC BAA-1870, 1×MIC), around 1.8 log10; in [3] (C. difficile ATCC BAA-1870, ½×MIC), around 1.02 log10; in the assay with C. difficile NR-49277 (C. difficile NR-49277, 1×MIC) it was around 1.27 log10; with C. difficile NR-49277 (C. difficile NR-49277, ½×MIC), around 0.8 log10.
